The values that follow come from PubChem BioAssay (NCI).

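How tested: cells in 96-well plates exposed to compound for 48 hours at five concentrations. TGI is the concentration that stops growth completely.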 A value given as a limit tells only on which side of the number the result lay.

Among the test systems are BT-549 breast; CCRF-CEM leukemia; DU-145 prostate; HS 578T breast; MALME-3M melanoma; MDA-MB-231 breast; MDA-MB-435; PC-3 prostate; SF-295 CNS; UACC-257 melanoma.
Holding throughout (test): DTP human tumour cell line panel, 48 h

Take `O=C(O)c1nc2cc(C(F)(F)F)ccc2[nH]c1=O`: the TGI in the test with BT-549 breast, in the test with CCRF-CEM leukemia, with DU-145 prostate, in the test with HS 578T breast, in the test on MALME-3M melanoma and in the test on MDA-MB-231 breast was more than 100 µM in each case. Moreover, the total growth inhibition concentration (TGI) in the test on MDA-MB-435, with PC-3 prostate, with SF-295 CNS and in the test with UACC-257 melanoma was more than 100 µM throughout.
Take `CN(C)c1ccc(/C=C2\N=C(c3ccccc3)N(/N=C3\C(=O)Nc4ccccc43)C2=O)cc1`: the total growth inhibition concentration (TGI) in the test on BT-549 breast, with CCRF-CEM leukemia, in the test with DU-145 prostate, in the test with HS 578T breast, in the test with MALME-3M melanoma and with MDA-MB-231 breast was more than 100 µM in each case. Besides, the TGI with MDA-MB-435 is 45.4 µM; with PC-3 prostate, more than 100 µM; with SF-295 CNS it was more than 100 µM; in the test on UACC-257 melanoma, more than 100 µM.
`Nc1ccc(-c2nc3ccccc3s2)cc1F`: the TGI with BT-549 breast is more than 100 µM; in the test with CCRF-CEM leukemia it was more than 100 µM; in the test with DU-145 prostate, more than 100 µM; with HS 578T breast, more than 100 µM; with MALME-3M melanoma it was more than 100 µM; in the test on MDA-MB-231 breast, 79 µM. Further, the concentration for total growth inhibition (TGI) in the test on MDA-MB-435 is more than 100 µM; in the test on PC-3 prostate, more than 100 µM; in the test on SF-295 CNS, 94 µM; in the test on UACC-257 melanoma, more than 100 µM.
For `COC(=O)C(CCSc1ccccc1)C(=O)OC`, the TGI in the test with BT-549 breast, in the test with CCRF-CEM leukemia, in the test with HS 578T breast, in the test on MALME-3M melanoma, in the test with MDA-MB-231 breast and in the test with MDA-MB-435 was more than 100 µM throughout. Also, the TGI in the test on PC-3 prostate, with SF-295 CNS and in the test with UACC-257 melanoma was more than 100 µM throughout.
Consider `Cc1ccc(N=Nc2c(C)nn(C(=O)CC(=O)Nc3ccc(Cl)cc3)c2C)cc1C`, for which the TGI is more than 100 µM with BT-549 breast; 71 µM in the test on CCRF-CEM leukemia; more than 100 µM in the test on DU-145 prostate; 30.7 µM in the test with HS 578T breast; more than 100 µM in the test on MALME-3M melanoma; more than 100 µM in the test with MDA-MB-231 breast. Besides, the TGI in the test on MDA-MB-435, with PC-3 prostate, in the test with SF-295 CNS and with UACC-257 melanoma was more than 100 µM throughout.
With `O=C(/C=C/c1ccc(O)cc1)c1cc(O)cc(O)c1`, the total growth inhibition concentration (TGI) with BT-549 breast was 29.8 µM; with CCRF-CEM leukemia it was 35.1 µM; in the test with DU-145 prostate, 25.2 µM; with HS 578T breast, more than 100 µM; in the test on MALME-3M melanoma it was 47.3 µM; in the test on MDA-MB-231 breast, 30.4 µM. The total growth inhibition concentration (TGI) in the test on MDA-MB-435 came out at 38.9 µM; in the test on PC-3 prostate it was 23.2 µM; in the test on SF-295 CNS, 30.6 µM; in the test with UACC-257 melanoma, 30.3 µM.
Consider `CC(C)N(C(=O)c1ccc(NCc2cc(O)ccc2O)cc1)C(C)C`, for which the total growth inhibition concentration (TGI) was 30.7 µM with BT-549 breast; more than 100 µM in the test with CCRF-CEM leukemia; 30 µM with DU-145 prostate; 78.7 µM with HS 578T breast; 28.9 µM in the test with MALME-3M melanoma; 32 µM with MDA-MB-231 breast. Further, the TGI was found to be 40.9 µM in the test with MDA-MB-435, 52.3 µM in the test with PC-3 prostate, 46 µM in the test with SF-295 CNS and 31.4 µM in the test on UACC-257 melanoma.
`CCN(CC)C(=O)N[C@@H](Cc1ccccc1)C(=O)NC`: the TGI in the test with BT-549 breast, in the test on CCRF-CEM leukemia, in the test with DU-145 prostate, with HS 578T breast, in the test with MALME-3M melanoma and in the test with MDA-MB-231 breast was more than 100 µM in each case. Further, the TGI in the test with MDA-MB-435, with PC-3 prostate and in the test on SF-295 CNS was more than 100 µM in each case.
Consider `Cc1n(-c2ccccc2)c2c([n+]1Cc1ccc([N+](=O)[O-])cc1)C(=O)c1ccccc1C2=O`, for which the TGI in the test with BT-549 breast stood at 3.18 µM; with CCRF-CEM leukemia it was 5.46 µM; in the test on DU-145 prostate, 3.28 µM; in the test with HS 578T breast it was 5.51 µM; with MALME-3M melanoma, 3.05 µM; with MDA-MB-231 breast, 3.08 µM. In addition, the concentration for total growth inhibition (TGI) in the test with MDA-MB-435 is 3.12 µM; in the test on PC-3 prostate it was 7.25 µM; with SF-295 CNS, 15.3 µM; in the test with UACC-257 melanoma, 3.16 µM.
Turning to `CSc1n[nH]c2n[nH]c(C)c12`, the TGI in the test with BT-549 breast, in the test on CCRF-CEM leukemia, in the test with DU-145 prostate, with HS 578T breast, with MALME-3M melanoma and with MDA-MB-231 breast was more than 100 µM throughout. Also, the TGI in the test on MDA-MB-435, in the test with PC-3 prostate, with SF-295 CNS and in the test on UACC-257 melanoma was more than 100 µM throughout.
As to `C=CCOCn1ccc(NC(=O)c2ccccc2)nc1=O`, the TGI with BT-549 breast, in the test with CCRF-CEM leukemia, with DU-145 prostate, in the test on HS 578T breast, in the test with MALME-3M melanoma and in the test with MDA-MB-231 breast was more than 100 µM throughout. The concentration for total growth inhibition (TGI) with MDA-MB-435, with PC-3 prostate, in the test with SF-295 CNS and in the test with UACC-257 melanoma was more than 100 µM in each case.
With `C=CCN1C[C@@H](C)N([C@@H](c2ccccc2)c2ccc(C(=O)N(CC)CC)cc2)C[C@@H]1C`, the TGI in the test with BT-549 breast, in the test with DU-145 prostate, with HS 578T breast, in the test with MALME-3M melanoma, in the test on MDA-MB-231 breast and in the test on MDA-MB-435 was more than 100 µM each time. The TGI with PC-3 prostate and in the test on SF-295 CNS was more than 100 µM in each case.
Take `O=C(Nc1ccc(N2C(=O)CSC2c2cccs2)cc1)c1ccc(N2C(=O)CSC2c2cccs2)cc1` (stereo unspecified): the TGI in the test on BT-549 breast, with CCRF-CEM leukemia, with DU-145 prostate, in the test with HS 578T breast, in the test on MALME-3M melanoma and with MDA-MB-231 breast was more than 100 µM throughout. Moreover, the TGI in the test on MDA-MB-435, in the test with PC-3 prostate, with SF-295 CNS and in the test on UACC-257 melanoma was more than 100 µM in each case.
Consider `O=C1Cc2c(-c3ccccc3)cc(-c3ccc4ccccc4c3)nc2-c2ccccc2N1`, for which the TGI in the test with BT-549 breast is more than 100 µM; in the test on CCRF-CEM leukemia, more than 100 µM; with DU-145 prostate, more than 100 µM; with HS 578T breast, 7.77 µM; in the test with MALME-3M melanoma, 31.9 µM; with MDA-MB-231 breast, 69.6 µM. Further, the TGI with MDA-MB-435 was more than 100 µM; in the test with PC-3 prostate, 45.5 µM; in the test with SF-295 CNS it was more than 100 µM; with UACC-257 melanoma, more than 100 µM.

Broadly, the TGI is the concentration at which net growth stops. A lower TGI goes with more potent growth arrest.
